Experimental data published in US20210220489A1, “AMYGDALAR NEURAL ENSEMBLE THAT ENCODES THE UNPL[…] PAIN” (The Board of Trustees of the Leland Stanford Junior …, priority 2020, published 2021).

Assays:
control neuropathic mice = assay: Pain behaviors in control neuropathic mice not expressing hM4-mCherry in the BLA; format: in vivo; details: absence of hM4 expression, CNO 10 mg/kg, morphine as positive control
From the text: To induce a chronic pain state, we used a modified version of the Spared Nerve Injury (SNI) model of neuropathic pain, as previously described (70). This model entails surgical section of two of the sciatic nerve branches (common peroneal and tibial branches) while sparing the third (sural branch). […] To perform this peripheral nerve injury procedure, anesthesia was induced and maintained throughout surgery with isoflurane (4% induction, 1.5% maintenance in oxygen). The left hind leg was shaved and wiped clean with alcohol and betadine. We made a 1-cm incision in the skin of the mid-dorsal thigh, approximately where the sciatic nerve trifurcates. The biceps femoris and semimembranosus muscles were gently separated from one another with blunt scissors, thereby creating a <1-cm opening between the muscle groups to expose the common peroneal, tibial, and sural branches of the sciatic nerve. Next, −2 mm of both the common peroneal and tibial nerves were transected and removed, without suturing and with care not to distend the sural nerve. The leg muscles are left uncultured and the skin was closed with tissue adhesive (3M Vetbond), followed by a Betadine application. During recovery from surgery, mice were placed under a heat lamp until awake and achieved normal balanced movement. Mice were then returned to their home cage and closely monitored over the following three days for well-being.
To evaluate mechanical reflexive sensitivity, we used a logarithmically increasing set of 8 von Frey filaments (Stoelting), ranging in gram force from 0.07- to 6.0-g (93). These filaments were applied perpendicular to the plantar hindpaw with sufficient force to cause a slight bending of the filament. […] Using the Up-Down statistical method, the 50% withdrawal mechanical threshold scores were calculated for each mouse and then averaged across the experimental groups. The response frequency was calculated as the number of positive responses out of 10 stimulations, delivered at 30-s intervals.
(§1) To evaluate affective-motivational responses evoked by thermal stimulation (81), we applied either a single, unilateral 50-μL drop of water (5, 30, or 55° C.) or acetone (evaporative cooling) to the left hindpaw, and the duration of attending behavior was collected for up to 60 s after the stimulation. […] The track was subdivided into 25 temperature zones (4.8-cm D per zone), and we assessed the temperature at the center of each zone by a K-probe thermocouple. […] A video camera placed above the track recorded the position of the mouse within the temperature zones, and videos were later analyzed using a video-tracking software (Etho-vision, Noldus) for duration of zone occupancy, zone visits, distance, velocity, and acceleration.

[1] = test system: control mice expressing eYFP in the BLA nociceptive ensemble; assay: Pain behaviors in control mice expressing eYFP in the BLA nociceptive ensemble (no hM4); format: in vivo
Method: For chemogenetic activity manipulation of BLA neuronal ensembles, we intracranially injected 100 nL of either AAV5-hSyn-DIO-hM4-mCherry (U. North Carolina Viral Core; titre: 3.98×1012), AAV5-hSyn-DIO-mCherry (U. North Carolina Viral Core; titre: 4.72×1012), AAVDJ-Ef1a-DIO-eYFP (Stanford Viral Core; titre: 2.65×1011) into both the left and right BLA at coordinates AP: −1.20 mm, ML: ±3.1 mm, DV: −4.60 mm.
To evaluate mechanical reflexive sensitivity, we used a logarithmically increasing set of 8 von Frey filaments (Stoelting), ranging in gram force from 0.07- to 6.0-g (93). These filaments were applied perpendicular to the plantar hindpaw with sufficient force to cause a slight bending of the filament. A positive response was characterized as a rapid withdrawal of the paw away from the stimulus within 4 s. Using the Up-Down statistical method, the 50% withdrawal mechanical threshold scores were calculated for each mouse and then averaged across the experimental groups. The response frequency was calculated as the number of positive responses out of 10 stimulations, delivered at 30-s intervals.
To evaluate affective-motivational responses evoked by mechanical stimulation, we used three von Frey filaments (0.07-g, 0.4-g, and 2.0-g) and a sharp 25G syringe needle (pin prick) (94). […]
as §1

[2] = CNO 10 mg/kg, AAVDJ-Ef1α-DIO-eYFP control mice

SMILES: C[N+]1([O-])CCN(C2=Nc3cc(Cl)ccc3Nc3ccccc32)CC1 [CNO, clozapine-N-oxide]
- affective-motivational behaviors (control neuropathic mice; acetone drop): Lack of effect
- reflex behaviors (control neuropathic mice; von Frey filaments): Lack of effect
- affective-motivational behaviors [1, 2]: Lack of effect
- reflexive behaviors [1, 2]: Lack of effect
- pain behaviors ([1]; CNO alone, control mice): had no effect
